Measured values published in patent US20250255857A1, “METHODS OF TREATING ANDROGEN RECEPTOR-INDEPENDENT PROSTATE CANCER” (FOGHORN THERAPEUTICS INC., priority 2022, published 2025).

Tests used:
[1] = system: C42B prostate xenograft tumors; test: C42B prostate xenograft tumor model, tumor growth inhibition; format: in vivo, mice; conditions: C42B CDX model, AR+; 30 mg/kg QD oral
Method: (§1) Procedure: The experimental details of the studies, including tumor model, mouse strain, cell number implanted, vehicle used, days of treatment, treatment details, and average tumor size at start of dosing are outlined in Table 1. All study mice were purchased from Beijing Anikeeper Biotech and Matrigel was utilized as a basement membrane for all xenograft models. All xenografts were engrafted subcutaneously in the right flank region. The vehicles and Compound 1 (3 mg/kg) were administered twice weekly (BIW) intraperitoneally and enzalutamide (30 mg/kg) was administered orally once daily (QD), when applicable. Tumor volumes and body weights were measured over the course of study, and doses were adjusted by body weight to achieve the proper dose in terms of mg/kg.

[2] = system: VCAP human prostate cancer tumor cells; test: VCaP CRPC CDX model in castrated mice (Example 6), tumor growth inhibition and tolerability; format: in vivo; conditions: castrated mice
Method: Procedure: The experimental details of the studies, including tumor model, mouse strain, cell number implanted, vehicle used, days of treatment, treatment details, and average tumor size at start of dosing are outlined in Table 7. All study mice were obtained and the studies were conducted at Pharmaron. Each mouse was inoculated subcutaneously on the right flank with the single cell suspension of VCAP human prostate cancer tumor cells (1×10^7) in 0.1 mL with Matrigel (1:1) in DMEM medium with 10% FBS for tumor development. The mice were castrated by removing the testes via a scrotal approach when the tumor volume reached 270 mm^3. After castration, the tumor volume decreased. Treatment started when the mean tumor volume grew back 265 mm^3. Based on tumor volume, mice were randomly assigned to respective groups using a computer-generated randomization procedure and treated according to the study design in Table 8.

[3] = system: VCaP prostate xenograft tumors; test: VCaP prostate xenograft tumor model (Example 1), tumor growth inhibition; format: in vivo, mice; conditions: VCaP CDX model, AR V7+; 30 mg/kg QD oral
Method: as §1

[4] = system: LNCaP prostate xenograft tumors; test: LNCaP prostate xenograft tumor model, tumor growth inhibition; format: in vivo, mice
Method: as §1

[5] = system: 22Rv1 prostate xenograft tumors; test: 22Rv1 prostate xenograft tumor model, tumor growth inhibition; format: in vivo, mice
Method: as §1

[6] = VCAP CRPC model, Enzalutamide at 30 mg/kg PO QD, 25 days
[7] = VCAP CRPC model, Enzalutamide at 30 mg/kg PO QD, 25 days, Day 57

CNC(=O)c1ccc(N2C(=S)N(c3ccc(C#N)c(C(F)(F)F)c3)C(=O)C2(C)C)cc1F [enzalutamide, reference compound]
TGI with Enzalutamide 30 mg/kg [1]: 68.5% | Tumor Growth % on Day 57 [2, 6]: 238 ± 9% | Tumor Size on Day 57 [2, 6]: 626 ± 28 mm3 | T/C [2, 7]: 76.7% | TGI [2, 7]: 23.3% | TGI ([2]; VCaP CRPC model, Compound 1 10 mg/kg, enzalutamide 30 mg/kg, day 57 after tumor inoculation): 23.3% | TGI with Enzalutamide 30 mg/kg [3]: 46.8% | TGI with Enzalutamide 30 mg/kg ([4]; LNCaP CDX model, AR+, 30 mg/kg QD oral): 92.1% | tumor growth inhibition (TGI), in words ([4]; LNCaP xenograft, Compound 1 3 mg/kg BIW IP, enzalutamide 30 mg/kg QD oral): did lead to tumor growth inhibition | TGI with Enzalutamide 30 mg/kg ([5]; 22RV1 CDX model, AR V7+, 30 mg/kg QD oral): 40.3% | TGI ([5]; 22Rv1 CDX model, Compound 1 3 mg/kg BIW IP, enzalutamide 30 mg/kg QD oral): 40.3%
